Format in all cases: in vivo
Data set [1] deals with Mouse. Kind of data set: Inhibitory effect of spontaneous motor activity. The settings on record: read-out: Inhibitory effect of spontaneous motor activity, 50% effective amount (ED50). Here is the method: (§1) Measurement of pharmacological activities are conducted in accordance with the procedures described in the following literatures:
1) Svensson, T. H. et al

Data set [2] deals with Mouse. In words: Anti-writhing effect (analgetic activity). The note with it: read-out: Anti-writhing effect, 50% effective amount (ED50). Here is the method:
as §1
Proc. Soc. […] Biol, & Med.,
(In writhing tests, fewer writhes than in controls are read as antinociception.)

Data set [3] relates to Mouse. Kind of data set: Anti-methanphethamine activity (neuroleptic activity). The settings on record: read-out: Anti-methanphethamine, 50% effective amount (ED50). Here is the method: (§2) Measurement of pharmacological activities are conducted in accordance with the procedures described in the following literatures: […]
The test system of data set [4] is Mouse. Kind of data set: Anti-tremorine activity (anti-Parkinson activity). The settings on record: for ED50: read-out: Anti-tremorine activity, 50% effective amount (ED50). Here is the method: as §2
Data set [5] deals with Mouse. Kind of data set: Acute toxicity LD50, oral administration. The note with it: compared with chlorpromazine and fluphenazine.

As usually defined, the ED50 is the dose at which the effect has come halfway, by size or by number of responders.

As to `OCCN1CCN(CCCN2c3ccccc3Sc3ccc(C(F)(F)F)cc32)CC1` [Fluphenazine], the ED50 in the data set on Mouse [1] (mouse, oral administration) is 2.1 mg/kg; in the data set on Mouse [2] (mouse, oral administration) it was 2.5 to 10 mg/kg; with Mouse [3] (mouse, oral administration) it was 0.5 mg/kg; in the data set with Mouse [4] (mouse, oral administration) it was 12 mg/kg.

Consider `Cl.FC(F)(F)c1ccc2c(c1)N(CCCN1CCCC1)c1ccccc1S2` [Known Compound a, 2-trifluoromethyl-10-(3-pyrrolidino-propyl)-phenothiazine hydrochloride], for which the ED50 is 3.8 mg/kg with Mouse [1] (mouse, oral administration); 4.1 mg/kg with Mouse [2] (mouse, oral administration); 1.9 mg/kg with Mouse [3] (mouse, oral administration); 4.3 mg/kg in the data set on Mouse [4] (mouse, oral administration).

In the case of `CN(C)CCCN1c2ccccc2Sc2ccc(Cl)cc21` [Chlorpromazine], the ED50 turned out to be 13 mg/kg in the data set with Mouse [1] (Mus musculus, po); 9.4 mg/kg in the data set on Mouse [2] (Mus musculus, po); 5.6 mg/kg in the data set with Mouse [3] (Mus musculus, po); 2.3 mg/kg with Mouse [4] (Mus musculus, po).

On to `Cl.OC1CCN(CCCN2c3ccccc3Sc3ccc(C(F)(F)F)cc32)C1` (stereo not drawn) [Compound A, 2-trifluoromethyl-10-[3-(3-hydroxy-pyrrolidino)-propyl]-phenothiazine hydrochloride], for which the ED50 with Mouse [1] (mouse, oral administration) was found to be 3.3 mg/kg; in the data set on Mouse [2] (mouse, oral administration) it was 1 mg/kg; in the data set on Mouse [3] (mouse, oral administration) it was 0.9 mg/kg; with Mouse [4] (mouse, oral administration) it was 3.6 mg/kg. The central anticholinergic activity entry in the data set with Mouse [4] (concluded from table comparison) is listed as “has central anticholinergic activity”. Also, the “acute toxicity (LD50) relative to chlorpromazine and fluphenazine” value with Mouse [5] is “far less than that of chlorpromazine and fluphenazine”.

The record behind these values is patent US4139632A, “Psychotropic 2-trifluoromethyl-10-[3-(3-hydroxy-pyrrolidino)-propyl]-phenothiazine compounds” (Eisai Co., Ltd., priority 1975, dated 1979).
